Test results published in patent publication US20050276812A1, “Antibody-drug conjugates and methods” (Genentech, Inc., priority 2004, published 2005).

What was measured:
[1] = system: SK-BR-3 and BT-474 breast cancer cells; test: in vitro cellular proliferation assay of free drug and drug-linker; format: cell-based
Excerpt: Pharmaceutical formulations of a therapeutic antibody-drug conjugate (ADC) may contain certain amounts of unreacted drug moiety (D), antibody-linker intermediate (Ab-L), and/or drug-linker intermediate (D-L), as a consequence of incomplete purification and separation of excess reagents, impurities, and by-products, in the process of making the ADC; or time/temperature hydrolysis or degradation upon storage of the bulk ADC or formulated ADC composition. […] Alternatively, or in addition to, it may contain a detectable amount of drug-linker intermediate DM1-SMCC. Alternatively, or in addition to, it may contain a detectable amount of the antibody, trastuzumab.
Efficacy of ADC were measured by a cell proliferation assay employing the following protocol (Promega Corp. Technical Bulletin TB288; Mendoza et al (2002) Cancer Res. 62:5485-5488): • 1. An aliquot of 100 μl of cell culture containing about 10^4 cells (SKBR-3, BT474, MCF7 or MDA-MB-468) in medium was deposited in each well of a 96-well, opaque-walled plate. • 2. Control wells were prepared containing medium and without cells. • 3. ADC was added to the experimental wells and incubated for 3-5 days. • 4. The plates were equilibrated to room temperature for approximately 30 minutes. • 5. A volume of CellTiter-Glo Reagent equal to the volume of cell culture medium present in each well was added. • 6. The contents were mixed for 2 minutes on an orbital shaker to induce cell lysis. • 7. The plate was incubated at room temperature for 10 minutes to stabilize the luminescence signal. • 8. Luminescence was recorded and reported in graphs as RLU=relative luminescence units.

[2] = 5-day acute toxicity study in rats; format: in vivo, female Sprague-Dawley rats; conditions: free DM1, 160 μg/kg (Group 6)
Experimental: Antibody-drug conjugates and an ADC-minus control, “Vehicle”, were evaluated in an acute toxicity rat model. Toxicity of ADC was investigated by treatment of female Sprague-Dawley rats with the ADC and subsequent inspection and analysis of the effects on various organs. Based on gross observations (body weights), clinical pathology parameters (serum chemistry and hematology) and histopathology, the toxicity of ADC may be observed, characterized, and measured.
Body weight was measured daily. Clinical chemistry, serum enzymes and hematology analysis was conducted on days 3 and 5; concluding with complete necropsy with histopathological assessment.
Animals were injected on day 1, complete chemistry and hematology profiles were obtained at baseline, day 3 and day 5 and a complete necropsy was performed on day 5. Routine histology was performed on three random animals for each group for the following tissues: sternum, liver, kidney, thymus, spleen, large and small intestine.

SMILES: COc1cc2cc(c1Cl)N(C)C(=O)C[C@H](OC(=O)[C@H](C)N(C)C(=O)CCS)[C@]1(C)O[C@H]1[C@H](C)[C@@H]1C[C@@](O)(NC(=O)O1)[C@H](OC)/C=C/C=C(\C)C2 [DM1, N^2′-deacetyl-N^2′-(3-mercapto-1-oxopropyl)-maytansine]
- IC50 [1]: 0.0045 µM
- severity of toxicity [2]: less than that seen in animals of Group 2

SMILES: COc1cc2cc(c1Cl)N(C)C(=O)C[C@H](OC(=O)[C@H](C)N(C)C(=O)CCSC1CC(=O)N(CC3CCC(C(=O)ON4C(=O)CCC4=O)CC3)C1=O)[C@]1(C)O[C@H]1[C@H](C)[C@@H]1C[C@@](O)(NC(=O)O1)[C@H](OC)/C=C/C=C(\C)C2 (stereo partly shown) [DM1-SMCC]
- IC50 [1]: 0.05 µM
- times less potent in cell killing than free drug DM1 [1]: about 20 times
